Assay results reported in patent US6334445B1, “Methods and compositions for treatment of ovarian cancer” (Baker Norton Pharmaceuticals, Inc., priority 1997, dated 2002).
Where two headings read alike, the source gives them in different places.

Assays:
[1] = infusion times 3 to 24 hours; cited from earlier work
breast cancer [2] = conditions: cited from earlier work
breast cancer [3] = conditions: paclitaxel 135 mg/m^2 in combination with cisplatin 75 mg/m^2; cited from earlier work
ovarian cancer = conditions: cited from earlier work
mammalian cells = conditions: 50 nM paclitaxel concentration; cited from earlier work

## CC(=O)O[C@H]1C(=O)[C@@]2(C)[C@H]([C@H](OC(=O)c3ccccc3)[C@]3(O)C[C@H](OC(=O)[C@H](O)[C@@H](NC(=O)c4ccccc4)c4ccccc4)C(C)=C1C3(C)C)[C@]1(OC(C)=O)CO[C@@H]1C[C@@H]2O [paclitaxel, 5β, 20-epoxy-1 ,2α4,7β10β13α-hexahydroxytax-11-en-9-one 4, 10-diacetate 2-benzoate 12-ester with (2R,3S)-Nbenzoyl-3-phenylisososerine]
Ovarian carcinoma; of 14 patients, 140 mg/m^2 over 96 hour infusion every 21 days
  partial responses: 3
Ovarian carcinoma; of 14 patients, 96 hour infusion
  patients with stable disease: One
Ovarian carcinoma; partial responses plus stable disease, 14 patients, 96 hour infusion
  overall response rate: 29%
Ovarian carcinoma; partial responses, 14 patients, 96 hour infusion
  response rate: 21%
[1]
  dose limiting toxicity: reversible myelosuppression
Breast cancer [2]; doses of 250 mg/m^2 with G-CSF, single agent
  response rate: 36-71%
Breast cancer [2]; doses of 135 to 175 mg/m^2, single agent
  response rate: 13-37%
Breast cancer [3]
  response rate: 79%
Ovarian cancer; 135 mg/m^2 every three weeks
  response rate: 15%
Ovarian cancer; 175 mg/m^2 every three weeks
  response rate: 20%
Ovarian cancer; higher dose (175 mg/m^2)
  time to tumor progression: 19 weeks
Ovarian cancer; lower dose (135 mg/m^2)
  time to tumor progression: 14 weeks
Mammalian cells
  effect on microtubules and cells: significant increase in microtubule number
